In paper PMC5884652, “New antimicrobial peptide kills drug-resistant pathogens without detectable resistance” (Oncotarget, 2018):
Ends that are not written are not given here.

How the values were obtained:
P. aeruginosa 3543 = assay: microbe, parasite or virus in culture; format: cell-based, Pseudomonas aeruginosa; conditions: pH 7.4 (II); 10 mM sodium phosphate buffer, 10% LB; 37° C, 24 h; mean of 3 experiments
From the text: (§1) The method for peptide synthesis has been described in detail previously. E. coli ATCC 25922 (LB media), P. aeruginosa ATCC 15692 (NB+0.5% NaCl media), Listeria monocytogenes ATCC 3710 (LB media), Staphylococcus epidermidis ATCC 12228 (LB media), and S. aureus ATCC 29213 (TSB media) were obtained from the American Type Culture Collection (Manassas, VA, USA). Bacillus subtilis KCTC 1998 (LB media), Salmonella typhimurium KCTC 1926 (NB media), and Proteus vulgaris KCTC 2433 (NB media) were obtained from the Korean Collection for Type Cultures (Jeollabuk-do, Korea). E. coli CCARM 1238 was received from the Culture Collection of Antibiotic Resistant Microbes at Seoul Women’s University, Korea. Drug-resistant P. aeruginosa 3543, 3904, 3547, and 4007 and S. aureus 3126, 0027, 5157, 1635, 4761, 5159, 3359, 2122, 1630, 1870, 3511, 5156, and 3518 were resistant strains isolated from patients with otitis media in a Chonnam National University’s hospital.
(§2) The antibacterial activities of AMPs (melittin, clavaspirin, and its analogs) and conventional antibiotic drugs (erythromycin, gentamicin, ampicillin, and piperacidin) were determined using microdilution assays. Bacterial cells were cultured at 37° C in appropriate culture media at pH 5.5 or pH 7.4 until collection during the mid-log phase and suspended in 10 mM sodium phosphate buffer (pH 5.5 or pH 7.4) supplemented with 10% culture medium. Thereafter, 2× serial dilutions of each peptide (0.25–128 μM) or antibiotic (0.25–256 μM) were added to sterile 96-well plates, and aliquots of cell suspension (5 × 10^5 colony forming units (cfu)/mL) were seeded into each well. The samples were then incubated at 37° C for 24 h. At the end of the incubation, the minimum inhibitory concentrations (MICs) of the peptides were determined using a VERSA Max microplate reader (Molecular Devices Co., Sunnyvale, CA, USA) at a wavelength of 600 nm. […] MIC values were calculated as the mean of 3 independent experiments conducted in triplicate.

P. aeruginosa 3547 = assay: microbe, parasite or virus in culture; format: cell-based, Pseudomonas aeruginosa; conditions: pH 7.4 (II); 10 mM sodium phosphate buffer, 10% LB; 37° C, 24 h; mean of 3 experiments
From the text: as §1, §2

P. aeruginosa 3904 = assay: microbe, parasite or virus in culture; format: cell-based, Pseudomonas aeruginosa; conditions: pH 7.4 (II); 10 mM sodium phosphate buffer, 10% LB; 37° C, 24 h; mean of 3 experiments
From the text: as §1, §2

P. aeruginosa 4007 = assay: microbe, parasite or virus in culture; format: cell-based, Pseudomonas aeruginosa; conditions: pH 7.4 (II); 10 mM sodium phosphate buffer, 10% LB; 37° C, 24 h; mean of 3 experiments
From the text: as §1, §2

HaCaT cells = format: cell-based, human; conditions: 400 μM rhodamine-labeled peptide, 24 h, 37° C, fluorescence microscope
Protocol: (§3) www.oncotarget.com Oncotarget, Supplementary Materials
(§4) New antimicrobial peptide kills drug-resistant pathogens without […]
(§5) Supplementary Figure 1: The hemolytic activities of peptides were tested using hRBCs, and cytotoxicity was tested using a human keratinocyte line (HaCaT cells). The cells were treated with 400 μM peptide in PBS buffer containing 8% hRBCs (v/v). The samples were then incubated with mild agitation for 1 h at 37° C, and then spun down at 800 × g for 10 min. Changes in hRBC morphology were examined under a microscope. Cells were treated with 400 μM rhodamine-labeled peptides. HaCaT cells were seeded at 4 × 10^3 cells/well and then incubated for 24 h, treated with rhodamine-labeled peptide and incubated for an additional 24 h at 37° C in a humidified chamber under an atmosphere containing 5% CO2. The cells were examined under an inverted fluorescence phase contrast microscope. Scale bar, 100 μm.
(§6) (1 picture or pasted object on this page, not shown here)

hRBCs = format: cell-based, human; conditions: 400 μM peptide, PBS buffer containing 8% hRBCs, 1 h, 37° C, microscope
Protocol: as §3, §4, §5, §6

E. coli = assay: Membrane depolarization (DiSC3-5); format: cell-based; conditions: ex 622 nm, em 670 nm
Protocol: The membrane depolarizing activities of the peptides were evaluated in E. coli cells using the membrane potential-sensitive fluorescent dye DiSC3-5 (3,3′-dipropylthiadicarbocyanine iodide). Two batches of bacterial cells (experiment and control) were grown to mid-log phase at 37° C, harvested, and washed three times with buffer A (20 mM glucose, 5 mM HEPES [pH 7.2]). The cells were then resuspended to an A600 of 0.05 in buffer A containing 0.1 M KCl, after which DiSC3-5 was added to a final concentration of […] and the mixture was incubated for 60 min until the fluorescence level stabilized. The peptides were then added to bacterial suspensions, and the changes in fluorescence were continuously recorded (excitation at 622 nm and emission at 670 nm) for 30 min [36].

FLRFIGSVKHGKGHLVHHIGVAL-NH2 [CSP-4]
MIC (P. aeruginosa 3543): 4 µM | MIC (P. aeruginosa 3547): 4 µM | MIC (P. aeruginosa 3904): 2 µM | MIC (P. aeruginosa 4007): 2 µM | Binding to the cell membrane of HaCaT cells (HaCaT cells): no detectable hemolytic or membrane-binding activity | Membrane damage of hRBCs (hRBCs): no detectable hemolytic or membrane-binding activity | Membrane depolarization (DisC3–5 fluorescence) (E. coli): dose-dependent disruption and resultant depolarization
